From PubChem BioAssay AID1963852 (Molecular Pharmacology Branch, DTP, NCI, 2024)

System: 282377-053-R-J1-PDC complex spheroid viability
Assay: Anticancer human tumor 282377-053-R-J1-PDC patient-derived colon adenocarcinoma cell line growth inhibition [POLQ]
Settings: for IC50: curve of first compound; for viability, T/C: stronger effect = lower value
Method in brief: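 Three-cell-type spheroids modelling solid tumor plus stroma served as the readout system; POL inhibitors were tested individually and in combination, concentration ranges set by clinical Cmax where known.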

[1] = second compound 0.0316 µM, first compound 0.0316 µM
[2] = second compound 0.0316 µM, first compound 0.1 µM
[3] = second compound 0.0316 µM, first compound 0.316 µM
[4] = second compound 0.0316 µM, first compound 1 µM
[5] = second compound 0.0316 µM, first compound 3.16 µM
[6] = second compound 0.0316 µM, first compound 10 µM
[7] = second compound 0.1 µM, first compound 0.0316 µM
[8] = second compound 0.1 µM, first compound 0.1 µM
[9] = second compound 0.1 µM, first compound 0.316 µM
[10] = second compound 0.1 µM, first compound 1 µM
[11] = second compound 0.1 µM, first compound 3.16 µM
[12] = second compound 0.1 µM, first compound 10 µM
[13] = second compound 0.316 µM, first compound 0.0316 µM
[14] = second compound 0.316 µM, first compound 0.1 µM
[15] = second compound 0.316 µM, first compound 0.316 µM
[16] = second compound 0.316 µM, first compound 1 µM
[17] = second compound 0.316 µM, first compound 3.16 µM
[18] = second compound 0.316 µM, first compound 10 µM
[19] = second compound 1 µM, first compound 0.0316 µM
[20] = second compound 1 µM, first compound 0.1 µM
[21] = second compound 1 µM, first compound 0.316 µM
[22] = second compound 1 µM, first compound 1 µM
[23] = second compound 1 µM, first compound 3.16 µM
[24] = second compound 1 µM, first compound 10 µM
[25] = second compound 3.16 µM, first compound 0.0316 µM
[26] = second compound 3.16 µM, first compound 0.1 µM
[27] = second compound 3.16 µM, first compound 0.316 µM
[28] = second compound 3.16 µM, first compound 1 µM
[29] = second compound 3.16 µM, first compound 3.16 µM
[30] = second compound 3.16 µM, first compound 10 µM
[31] = second compound 10 µM, first compound 0.0316 µM
[32] = second compound 10 µM, first compound 0.1 µM
[33] = second compound 10 µM, first compound 0.316 µM
[34] = second compound 10 µM, first compound 1 µM
[35] = second compound 10 µM, first compound 3.16 µM
[36] = second compound 10 µM, first compound 10 µM
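Note: spheroids exposed to compounds for seven days.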
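Throughout, for viability, T/C: 100% = DMSO vehicle control viability.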

## C#Cc1c(F)ccc2cc(O)cc(-c3ncc4c(N5CC6CCC(C5)N6)nc(OCC56CCCN5CC(F)C6)nc4c3F)c12 (stereo not drawn) + Cc1cccc(N(C)C(=O)C2C(O)CCN2c2nc(C)cc(C(F)(F)F)c2C#N)c1
Second compound 0.0316 µM
  IC50: > 10 µM
Second compound 0.1 µM
  IC50: > 10 µM
Second compound 0.316 µM
  IC50: > 10 µM
Second compound 1 µM
  IC50: > 10 µM
Second compound 3.16 µM
  IC50: > 10 µM
Second compound 10 µM
  IC50: > 10 µM
[1]
  viability, T/C: 105%
[2]
  viability, T/C: 84%
[3]
  viability, T/C: 77.4%
[4]
  viability, T/C: 89.2%
[5]
  viability, T/C: 68.6%
[6]
  viability, T/C: 86.9%
[7]
  viability, T/C: 84.1%
[8]
  viability, T/C: 82.4%
[9]
  viability, T/C: 112%
[10]
  viability, T/C: 84.8%
[11]
  viability, T/C: 106%
[12]
  viability, T/C: 81%
[13]
  viability, T/C: 91.9%
[14]
  viability, T/C: 79.2%
[15]
  viability, T/C: 105%
[16]
  viability, T/C: 93.6%
[17]
  viability, T/C: 85.2%
[18]
  viability, T/C: 66.2%
[19]
  viability, T/C: 104%
[20]
  viability, T/C: 80.4%
[21]
  viability, T/C: 86%
[22]
  viability, T/C: 81.3%
[23]
  viability, T/C: 86.9%
[24]
  viability, T/C: 70.4%
[25]
  viability, T/C: 91.9%
[26]
  viability, T/C: 97.6%
[27]
  viability, T/C: 73.3%
[28]
  viability, T/C: 75%
[29]
  viability, T/C: 77.9%
[30]
  viability, T/C: 74.3%
[31]
  viability, T/C: 81.7%
[32]
  viability, T/C: 82.4%
[33]
  viability, T/C: 82.3%
[34]
  viability, T/C: 68.5%
[35]
  viability, T/C: 70.6%
[36]
  viability, T/C: 81%

## C=CC(=O)N1CCN(c2nc(=O)n(-c3c(C)ccnc3C(C)C)c3nc(-c4c(O)cccc4F)c(F)cc23)C(C)C1 (stereo not drawn) + Cc1cccc(N(C)C(=O)C2C(O)CCN2c2nc(C)cc(C(F)(F)F)c2C#N)c1
Second compound 0.0316 µM
  IC50: > 10 µM
Second compound 0.1 µM
  IC50: > 10 µM
Second compound 0.316 µM
  IC50: > 10 µM
Second compound 1 µM
  IC50: > 10 µM
Second compound 3.16 µM
  IC50: > 10 µM
Second compound 10 µM
  IC50: > 10 µM
[1]
  viability, T/C: 94.8%
[2]
  viability, T/C: 84.6%
[3]
  viability, T/C: 119%
[4]
  viability, T/C: 89.3%
[5]
  viability, T/C: 97.3%
[6]
  viability, T/C: 80.5%
[7]
  viability, T/C: 102%
[8]
  viability, T/C: 108%
[9]
  viability, T/C: 93.4%
[10]
  viability, T/C: 83.5%
[11]
  viability, T/C: 90.4%
[12]
  viability, T/C: 88.7%
[13]
  viability, T/C: 91.2%
[14]
  viability, T/C: 106%
[15]
  viability, T/C: 106%
[16]
  viability, T/C: 89.4%
[17]
  viability, T/C: 74.1%
[18]
  viability, T/C: 79.3%
[19]
  viability, T/C: 79.2%
[20]
  viability, T/C: 92.7%
[21]
  viability, T/C: 89%
[22]
  viability, T/C: 80.8%
[23]
  viability, T/C: 85.7%
[24]
  viability, T/C: 76.6%
[25]
  viability, T/C: 88.5%
[26]
  viability, T/C: 99%
[27]
  viability, T/C: 71.9%
[28]
  viability, T/C: 88.5%
[29]
  viability, T/C: 84%
[30]
  viability, T/C: 89.4%
[31]
  viability, T/C: 76.7%
[32]
  viability, T/C: 80.8%
[33]
  viability, T/C: 89.7%
[34]
  viability, T/C: 86.8%
[35]
  viability, T/C: 85.8%
[36]
  viability, T/C: 70.7%

## CC(C)n1c(=O)n(C)c2cnc3cc(F)c(-c4ccc(OCCCN5CCCCC5)nc4)cc3c21 + Cc1cccc(N(C)C(=O)C2C(O)CCN2c2nc(C)cc(C(F)(F)F)c2C#N)c1
Second compound 0.0316 µM
  IC50: > 10 µM
Second compound 0.1 µM
  IC50: > 10 µM
Second compound 0.316 µM
  IC50: > 10 µM
Second compound 1 µM
  IC50: > 10 µM
Second compound 3.16 µM
  IC50: > 10 µM
Second compound 10 µM
  IC50: > 10 µM
[1]
  viability, T/C: 97.8%
[2]
  viability, T/C: 129%
[3]
  viability, T/C: 99%
[4]
  viability, T/C: 114%
[5]
  viability, T/C: 109%
[6]
  viability, T/C: 88.3%
[7]
  viability, T/C: 95.2%
[8]
  viability, T/C: 123%
[9]
  viability, T/C: 98.2%
[10]
  viability, T/C: 97.5%
[11]
  viability, T/C: 129%
[12]
  viability, T/C: 84.8%
[13]
  viability, T/C: 99.6%
[14]
  viability, T/C: 92.3%
[15]
  viability, T/C: 96%
[16]
  viability, T/C: 89.5%
[17]
  viability, T/C: 99.1%
[18]
  viability, T/C: 73.8%
[19]
  viability, T/C: 105%
[20]
  viability, T/C: 99.8%
[21]
  viability, T/C: 97.7%
[22]
  viability, T/C: 105%
[23]
  viability, T/C: 106%
[24]
  viability, T/C: 93.2%
[25]
  viability, T/C: 81.5%
[26]
  viability, T/C: 102%
[27]
  viability, T/C: 96.4%
[28]
  viability, T/C: 98.9%
[29]
  viability, T/C: 97.1%
[30]
  viability, T/C: 92.7%
[31]
  viability, T/C: 93.2%
[32]
  viability, T/C: 87.3%
[33]
  viability, T/C: 110%
[34]
  viability, T/C: 81.9%
[35]
  viability, T/C: 120%
[36]
  viability, T/C: 82.1%

## CC1COCCN1c1cc(C2(O)CC3CCC(C2)O3)c2cnn(-c3ccn[nH]3)c2n1 (stereo not drawn) + Cc1cccc(N(C)C(=O)C2C(O)CCN2c2nc(C)cc(C(F)(F)F)c2C#N)c1
Second compound 0.0316 µM
  IC50: 0.524 µM
Second compound 0.1 µM
  IC50: 0.3 µM
Second compound 0.316 µM
  IC50: 0.242 µM
Second compound 1 µM
  IC50: 0.489 µM
Second compound 3.16 µM
  IC50: 0.23 µM
Second compound 10 µM
  IC50: 0.302 µM
[1]
  viability, T/C: 106%
[2]
  viability, T/C: 74.9%
[3]
  viability, T/C: 67.9%
[4]
  viability, T/C: 33%
[5]
  viability, T/C: 25.5%
[6]
  viability, T/C: 16.7%
[7]
  viability, T/C: 83.8%
[8]
  viability, T/C: 83.6%
[9]
  viability, T/C: 48.4%
[10]
  viability, T/C: 28.1%
[11]
  viability, T/C: 30.4%
[12]
  viability, T/C: 21.9%
[13]
  viability, T/C: 78.9%
[14]
  viability, T/C: 68.3%
[15]
  viability, T/C: 44.6%
[16]
  viability, T/C: 27.3%
[17]
  viability, T/C: 29.2%
[18]
  viability, T/C: 19.8%
[19]
  viability, T/C: 80.7%
[20]
  viability, T/C: 79.2%
[21]
  viability, T/C: 54%
[22]
  viability, T/C: 37.2%
[23]
  viability, T/C: 27%
[24]
  viability, T/C: 13.9%
[25]
  viability, T/C: 78.7%
[26]
  viability, T/C: 55.2%
[27]
  viability, T/C: 49%
[28]
  viability, T/C: 30%
[29]
  viability, T/C: 31.2%
[30]
  viability, T/C: 13.6%
[31]
  viability, T/C: 76%
[32]
  viability, T/C: 66.1%
[33]
  viability, T/C: 49.2%
[34]
  viability, T/C: 30.9%
[35]
  viability, T/C: 31.6%
[36]
  viability, T/C: 14.4%
